According to ChEMBL document CHEMBL4354883, “Design, Synthesis, and Biological Evaluation of HSP90 Inhibitor-SN38 Conjugates for Targeted Drug Accumulation” (J Med Chem, 2020):
Activity calls are given as the source filed them. The calls are words filed in the database; no cut-off is given here.

Legend:
Heat shock protein HSP90 [1] = target: T1, Heat shock protein HSP90 (Homo sapiens, UniProt P07900+P08238); test: Inhibition of HSP90 in human A549 cells assessed as upregulation of HSP70 expression at 0.2 to 5 uM after 24 hrs by Western blot analysis; format: cell-based
[2] = target: T2, DNA topoisomerase 1 (Homo sapiens) (UniProt P11387); test: Inhibition of topoisomerase 1 in human A549 cells assessed as increase in phosphorylated KAP1 expression at 0.2 to 5 uM after 24 hrs by Western blot analysis; format: cell-based
T2 sequence (whole entry): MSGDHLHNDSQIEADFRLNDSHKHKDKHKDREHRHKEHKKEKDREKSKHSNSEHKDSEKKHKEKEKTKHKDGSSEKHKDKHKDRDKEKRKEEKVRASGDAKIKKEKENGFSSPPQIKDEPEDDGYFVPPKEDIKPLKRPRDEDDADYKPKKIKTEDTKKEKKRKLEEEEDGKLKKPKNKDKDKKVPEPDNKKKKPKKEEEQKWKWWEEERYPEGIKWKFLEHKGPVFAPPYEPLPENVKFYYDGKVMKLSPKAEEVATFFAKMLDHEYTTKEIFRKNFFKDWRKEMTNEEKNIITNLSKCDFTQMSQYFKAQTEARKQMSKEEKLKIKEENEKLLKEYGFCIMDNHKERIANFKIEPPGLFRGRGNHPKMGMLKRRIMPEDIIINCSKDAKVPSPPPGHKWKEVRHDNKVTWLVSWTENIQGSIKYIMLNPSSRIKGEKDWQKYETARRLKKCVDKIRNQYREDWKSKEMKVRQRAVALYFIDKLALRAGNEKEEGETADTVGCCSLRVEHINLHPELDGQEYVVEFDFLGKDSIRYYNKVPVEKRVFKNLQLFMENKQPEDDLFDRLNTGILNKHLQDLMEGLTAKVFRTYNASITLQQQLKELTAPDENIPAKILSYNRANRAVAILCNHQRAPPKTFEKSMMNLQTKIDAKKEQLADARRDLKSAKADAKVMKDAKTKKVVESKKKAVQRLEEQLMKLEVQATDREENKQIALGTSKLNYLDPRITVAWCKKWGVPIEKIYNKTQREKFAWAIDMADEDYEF

[3] = Drug uptake in human HL7702 cells at 5 uM after 6 hrs in presence of HSP90 ATPase competitive inhibitor, NVP-AUY922 by confocal laser scanning microscopic analysis; format: ADME, cell-based; settings: l02, 6 h
[4] = Prodrug release in human A549 cells assessed as increase in 7-ethyl-10-hydroxycamptothecin level at 5 uM after 12 hrs by LC-MS/MS analysis; format: ADME, cell-based; settings: a549, 12 h
Heat shock protein HSP90 [5] = target: T1, Heat shock protein HSP90; test: Inhibition of HSP90 in human A549 cells assessed as downregulation of Akt expression at 0.008 to 1 uM after 24 hrs by Western blot analysis; format: cell-based
[6] = Toxicity in lung of mouse xenografted with human Capan1 cells assessed as pathological changes at 50 mg/kg, iv for every 2 days measured at 2 hrs post-last dose by H and E staining based analysis; format: organism-based; settings: in vivo
[7] = Prodrug release in tumor of mouse xenografted with human HCT116 cells assessed as increase in 7-ethyl-10-hydroxycamptothecin level by measuring retention time at 50 mg/kg, iv administered as single dose by LC-MS/MS analysis; format: ADME, organism-based, Neoplasm; settings: in vivo
[8] = Drug uptake in tumor of mouse xenografted with human Capan1 cells assessed as retention time of the compound at 50 mg/kg, iv by LC-MS/MS analysis; format: ADME, organism-based, Neoplasm; settings: in vivo
[9] = Drug uptake in human HL7702 cells in PBS solution at 5 uM after 6 hrs by confocal laser scanning microscopic analysis; format: ADME, cell-based; settings: l02, 6 h
Mus musculus = test: In vivo inhibition of HSP90 in mouse xenografted with human Capan1 cells assessed as decrease in AKT protein expression at 50 mg/kg, iv for every 2 days measured at 2 hrs post last dose by Western blot analysis; format: functional, organism-based
[10] = Prodrug release in tumor of mouse xenografted with human Capan1 cells assessed as increase in 7-ethyl-10-hydroxycamptothecin level at 50 mg/kg, iv after 72 hrs by LC-MS/MS analysis; format: ADME, organism-based, Neoplasm; settings: in vivo

Drug uptake [3]	Drug metabolism [4]	inhibition (Heat shock protein HSP90 [5])	Retention_time [7] [h]	Retention_time [8] [h]	Drug uptake [9]	Drug metabolism [10]	SMILES	inhibition (Heat shock protein HSP90 [1])	inhibition [2]	Activity [6]	inhibition (Mus musculus)
							CCc1c2c(nc3ccc(OC(=O)N4CCC(NC(=O)c5noc(-c6cc(C(C)C)c(O)cc6O)c5-c5ccc(CN6CCOCC6)cc5)CC4)cc13)-c1cc3c(c(=O)n1C2)COC(=O)[C@]3(O)CC	Active	inactive		
Not Active	Metabolite_Detected	inactive	72	72	Not Active	Metabolite_Detected	CCc1c2c(nc3ccc(O)cc13)-c1cc3c(c(=O)n1C2)COC(=O)[C@@]3(CC)OC(=O)CNC(=O)c1noc(-c2cc(C(C)C)c(O)cc2O)c1-c1ccc(CN2CCOCC2)cc1			Non-Toxic	Active
